These results are taken from patent US9084546B2, “Co-electrodeposited hydrogel-conducting polymer electrodes for biomedical applications” (The Regents of the University of Michigan, priority 2005, dated 2015).

The structures appear in SMILES notation.

Data set [1] relates to MCC (mouse primary cortical cultures). Put plainly: Cytotoxicity dose-response of EDOT monomer with PSS dopant (cell viability). The format is cell-based. As to conditions: MCC exposed to as much as 0.01 M EDOT, 0.02M PSS for as long as 72 h. The procedure: (§1) Materials and Methods: SH-SY5Y neuroblastoma-derived cells were maintained in Dulbecco's Modified-Eagle's Media (DMEM with glucose, with L-glutamine; Gibco/Invitrogen, Carlsbad, Calif.) supplemented with Penn-Strep mixed antibiotic solution (dilute 1:100 in cell media; Gibco/Invitrogen) and 10% fetal bovine serum (FBS; Gibco/Invitrogen). Mouse primary dissociated cortical cultures (MCC) were prepared from embryonic day 18-20 (E18-20) mice. […]
(§2) Cell Viability Assays: Cell viability was assessed using three assays; the Vybrant Live/Dead Assay (Molecular Probes), the MTT cell viability assay (Chemicon, Temecula, Calif.), and immunocytochemistry (ICC) for the apoptosis associated protease, activated caspase 3 (Cell Signaling Technologies, Beverly, Mass.). For Vybrant Live/Dead assay cell quantity, size, and type of nuclear staining intensity were assessed by fluorescence microscopy using 3 different dyes, Hoechst 33342 (labels all cell nuclei but brighter in nuclei of apoptotic cells), YoPro-3 (labels apoptotic cells) and propidium iodide (PI) (labels cells with compromised membrane; apoptotic & necrotic cells). […]

A further data set has as its system SY5Y cells. The description is as above. The format is cell-based. As to conditions: SY5Y cells exposed to as much as 0.01 M EDOT, 0.02M PSS for as long as 72 h. The method, then:
as §1, §2

With `c1scc2c1OCCO2` [EDOT, 3,4-ethylenedioxythiophene], the cell viability entry (in data set [1]; in the data set on SY5Y cells) was “at least 75%” each time.
